Tested on: SK-OV-3 cell line
Test: 5-aza-2′-deoxycytidine treatment of SK-OV-3 cell line, gene expression changes by qRT-PCR
Assay type: cell-based, human
Experimental: Human ovarian cancer cell line SK-OV-3 was purchased from American type culture collection (ATCC no. HTB-77) and cultured in a McCoy's 5a medium containing 10% FBS (fetal bovine serum), 100 U/mL penicillin and 100 μg/mL streptomycin.
Total RNAs were extracted from SK-OV-3 cell line and the tumor tissues using an RNeasy mini kit (Qiagen), respectively. The extraction was performed according to manufacturer's instructions. The extracted total RNAs were quantified using a spectrophotometer, and RNA degradation was examined by electrophoresis in a 1% agarose gel.
For cDNA synthesis, Superscript II reverse transcriptase (Invitrogen) was used. 1 μg of total RNA and 50 ng of oligo dT were denatured at 70° C. for 10 minutes, and then mixed with a reaction mixture containing 4 μl of 5×RT buffer, 2 μl of […], 4 μl of 2.5 mM dNTP mixture, 200 units of Superscript II reverse transcriptase and 10 units of RNase inhibitor to prepare 20 μl of the resulting reaction mixture, which was reacted at 25° C. for 10 minutes, at 42° C. for 50 minutes, and at 95° C. for 5 minutes to synthesize cDNA. This cDNA was diluted at 1:4, and 2 μl thereof was used as a template for qRT-PCR. In qRT-PCR, 20 μl of reaction mixture containing 2 μl of cDNA, 10 μl of SYBR Premix EX Taq (Takara Bio), 0.4 μl of Rox reference dye (50×, Takara Bio), and 200 nM of primers of each gene was reacted at 95° C. for 30 seconds, and then repeated for 40 cycles (at 95° C. for 3 seconds, and at 60° C. for 30 seconds) using an ABI 7500fast sequence detection system (Applied Biosystems) for amplification. The PCR products were reacted at 95° C. for 15 seconds, at 60° C. for 1 minute, and at 95° C. for 15 seconds to examine their specificity. 18S rRNA expression was used as an internal control, and expressions of AGR2, CA9, GABRP, IFITM1 and MUC13 genes were normalization using the 18S rRNA expression level by a ΔΔCT method. The sequences of the primers used are as follows.
SK-OV-3 cell line was treated with a methylation inhibitor, 5-aza-2′-deoxycytidine (Sigma-Aldrich) at concentrations of 5 and 10 μM for 3 days, and then changes in AGR2, CA9, GABRP, IFITM1, and MUC13 gene expressions were measured by qRT-PCP.

[1] = SK-OV-3 cells treated at 5 and 10 μM for 3 days, qRT-PCR normalized to 18S rRNA

SMILES: Nc1ncn([C@H]2C[C@H](O)[C@@H](CO)O2)c(=O)n1 [5-aza-2′-deoxycytidine]
- increase in AGR2 gene expression [1]: about 2 fold
- increase in CA9 gene expression [1]: about 3.4 fold
- increase in GABRP gene expression [1]: about 1.8 fold
- increase in IFITM1 gene expression [1]: about 1.7 fold
- increase in MUC13 gene expression [1]: 17.8 fold
- changes in expressions of the five genes (AGR2, CA9, GABRP, IFITM1, and MUC13) (SK-OV-3 cells, treatment for 3 days, result in words): increased expressions of the above genes were observed
